Data from US9872829B2, “Core sheath drug delivery devices” (Chemo Research, S.L., priority 2012, dated 2018).

Details: 21 days
Description: Etonogestrel (ETO) solubility in the hydrophilic polyurethane, Hydrothane AL 25-80A, was determined by evaluating its in-vitro elution (IVE) from core sheath IVRs containing ETO in the core at various loadings.
The core polymer was Hydrothane AL 25-80A and the sheath polymer EVA VA content 28% w/w.

SMILES | Csat in Hydrothane AL 25-80A (concentration concluded to be below Csat)
C#C[C@]1(O)CC[C@H]2[C@@H]3CCc4cc(O)ccc4[C@H]3CC[C@@]21C [EE, Ethinyl Estradiol] | > 0.25%
C#C[C@]1(O)CC[C@H]2[C@@H]3CCC4=CC(=O)CC[C@@H]4[C@H]3C(=C)C[C@@]21CC [ETO, Etonogestrel] | > 1.00%
